Measurements as given in patent US5594103A, “Lantibiotics similar to nisin a” (Stichting Nederlands Instituut Voor Zuivelonderzoek (NIZO), priority 1991, dated 1997).
≈ marks a conversion by molar mass, not a printed value.

Columns and labels:
anti-nisin A antibodies = experiment: competitive ELISA with anti-nisin A antibodies; assay type: binding
Source text: Because the only difference between nisin Z and nisin A consists in the His27Asn substitution, the agreement between nisin Z and nisin A in respect of proteolytic sensitivity for these two enzymes is easily explainable. However, there are significant differences in physicochemical characteristics between the two abovementioned lantibiotics.

[1] = test system: Bacillus cereus (B.c.) strain 5227; experiment: MIC bioassay from OD600nm inhibition curves; assay type: cell-based; details: 6 hours at 30° C., shaken; less than 1% increase in OD600nm
Procedure: (§1) The antimicrobial activities referred to above were measured in a bioassay using Micrococcus flavus (M. f.) strain […], Bacillus cereus (B.c.) strain 5227 and Strepococcus thermophilus (S.t.) strain 3218 as indicator strains. Minimum inhibitory concentration (MIC) values were determined in the following way. Cultures of indicator organisms grown overnight were diluted to OD600nm values or 0.05 (M.f.) or 0.025 (S.t. and B.c.) and divided into 10 5 ml portions in tubes. These tubes were inoculated with various amounts of nisin A or (mutant) nisin Z and incubated aerobically under the following conditions (M.f.: 8 hours at 30° C., shaken; S.t.: 3 hours at 37° C., without shaking; B.c.: 6 hours at 30° C., shaken). The OD600nm was then measured. Without the addition of nisin, the final OD600nm values were approximately 1.2 for M.f., 0.5 for S.t. and 0.8 for B.c. All experiments were carried out in triplicate. The MIC values were determined from the inhibition curves by calculating the minimum concentration of (mutant) nisin at which less than a 1% increase in the OD600nm occurred. The solubilities of nisin A, nisin Z and the mutants N27K-nisin Z and H31K-nisin Z were determined in the range between pH 6.0 and pH 7.5. It can be seen from the results that in this range nisin Z is 1.5 to 2 times more soluble than nisin A and that the nisin Z mutants having an additional positive charge are 5 to 10 times more soluble than nisin A (Table 2).

[2] = test system: Strepococcus thermophilus (S.t.) strain 3218; experiment: MIC bioassay from OD600nm inhibition curves; assay type: cell-based; details: 3 hours at 37° C., without shaking; less than 1% increase in OD600nm
Procedure: as §1

[3] = test system: Micrococcus flavus (M. f.) strain DSM 1790; experiment: MIC bioassay from OD600nm inhibition curves; assay type: cell-based; details: 8 hours at 30° C., shaken; less than 1% increase in OD600nm
Procedure: as §1

[4] = test system: Brevibacterium linens ATCC 9174; experiment: inhibition spectrum, agar diffusion method; assay type: cell-based
Source text: (§2) The antimicrobial activity of nisin Z was compared with that of nisin A. In this case, and for further comparisons of the two lantibiotics, use was made of preparations which had been purified with the aid of RP-HPLC [see above] and for which the precise amounts of lantibiotic had been determined by determining the absorption at 220 nm. […] The difference comprised both the shape and the gradient of the dose/response curve which relates the amount of lantibiotic added and the diameter of the inhibition zones. In this context it should be pointed out that nisin concentrations which are used in practice are always higher than 2.5 μg/ml [Delves-Broughton, Food Manufacture, March 1987 pp. 63-64]. so that measurements at lower concentrations are more of academic than of practical interest. […] Milk Dairy J., 15 (1961) 127-132]. […] A differentiation between these is made by determining the minimum inhibitory concentrations (MIC) of nisin Z and nisin A which effected growth inhibition in the case of the microorganisms used. In this determination use was also made of M. flavus DSM1719 and S. thermophilus Rs cultured at 37° C. in, respectively, nutrient broth (Difco) and whey permeate containing 0.2% yeast extract. Various amounts of nisin Z and nisin A were added to exponentially growing cultures of both organisms, after which the growth was compared with that of cultures to which no lantibiotic had been added.

[5] = test system: Clostridium tyrobutyricum BZ15; experiment: inhibition spectrum, agar diffusion method; assay type: cell-based
Source text: as §2

[6] = test system: Lactococcus lactis subsp. cremoris BA3; experiment: inhibition spectrum, agar diffusion method; assay type: cell-based
Source text: as §2

[7] = test system: Bacillus cereus strains VC1, P7 and C5; experiment: inhibition spectrum, agar diffusion method; assay type: cell-based
Source text: as §2

[8] = test system: Listeria monocytogenes strain 1, 4B, 13 and 669; experiment: inhibition spectrum, agar diffusion method; assay type: cell-based
Source text: as §2

chymotrypsin = experiment: sensitivity for proteolytic enzymes (RP-HPLC integrity and residual activity); assay type: physicochemical; details: nisin Z versus nisin A
Procedure: (§3) The sensitivity of the lantibiotics for some proteolytic enzymes has been described [Hurst, see above]. The sensitivity of nisin Z and nisin A for the proteolytic enzymes trypsin and chymotrypsin were determined by determining the integrity and the biological residual activity of the lantibiotics with the aid of, respectively, RP-HPLC and the agar diffusion assay [see above] after incubation with one of these enzymes.

trypsin = experiment: as above; assay type: physicochemical; details: nisin Z versus nisin A
Procedure: as §3

solubility determination = assay type: physicochemical; details: for Solubility: 0.15M NaCl, room temperature
M. flavus DSM1719 = experiment: minimum inhibitory concentration in exponentially growing cultures; assay type: cell-based; details: 37° C., nutrient broth
Source text: as §2, with “Various amounts of nisin Z and nisin A were added to exponentially growing cultures of both organisms, after which the growth was compared with that of cultures to which no lantibiotic had been added.” left out

S. thermophilus Rs [9] = experiment: as above; assay type: cell-based; details: 37° C., whey permeate containing 0.2% yeast extract
Source text: as §2, with “Various amounts of nisin Z and nisin A were added to exponentially growing cultures of both organisms, after which the growth was compared with that of cultures to which no lantibiotic had been added.” left out

S. thermophilus Rs [10] = experiment: agar diffusion bioassay, S. thermophilus Rs as indicator; assay type: cell-based; details: S. thermophilus Rs in TGV medium, versus nisin A
Procedure: (§4) The strain NIZO 22186 was isolated from an industrially obtained fermented milk product and identified as a L. lactis strain which ferments sucrose and produces an antimicrobial activity in the culture medium. This antimicrobial activity was determined by the agar diffusion bioassay method [Tramer and Fowler, J. Sci. Food Agric. 15 (1964) 522-528] using Micrococcus flavus DSM 1719 cultured in nutrient broth(Difco) as indicator. The supernatant of a culture of strain […] cultured on lactose M17 medium (Difco) containing 0-5% sucrose or glucose contained an antimicrobial activity which, compared with strain NIZO R5 [Galesloot and Pette, Neth. […] The absorption was monitored at 220 nm. […] The purified peptide material from strain […] and purified commercial nisin A were then hydrolysed for 24 hours in 6N HCl at 110° C. under nitrogen, concentrated by freeze-drying and, after dissolving in 0.2M Na citrate buffer of pH 2.2, analyzed in a LKB 4151 amino acid analyser. […]
(§5) The antimicrobial activity of nisin Z was compared with that of nisin A. In this case, and for further comparisons of the two lantibiotics, use was made of preparations which had been purified with the aid of RP-HPLC [see above] and for which the precise amounts of lantibiotic had been determined by determining the absorption at 220 nm. […]

[11] = test system: Micrococcus flavus DSM 1719; experiment: agar diffusion bioassay, M. flavus as indicator; assay type: cell-based
Procedure: as §4, §5

C=C(NC(=O)[C@@H](NC(=O)[C@H](Cc1c[nH]cn1)NC(=O)[C@@H](NC(=O)[C@H](CO)NC(=O)[C@@H]1CS[C@@H](C)[C@H]2NC(=O)[C@H](C)NC(=O)[C@H](NC(=O)[C@H](CCCCN)NC(=O)[C@H](CCSC)NC(=O)[C@H](CC(N)=O)NC(=O)[C@@H]3CS[C@@H](C)[C@@H](NC(=O)[C@H](CCCCN)NC(=O)[C@@H]4CS[C@@H](C)[C@@H](NC(=O)[C@@H]5CSC[C@@H](NC(=O)/C(=C/C)NC(=O)[C@@H](N)[C@@H](C)CC)C(=O)N[C@@H]([C@@H](C)CC)C(=O)NC(=C)C(=O)N[C@@H](CC(C)C)C(=O)N5)C(=O)N5CCC[C@H]5C(=O)NCC(=O)N4)C(=O)NCC(=O)N[C@@H](C)C(=O)N[C@@H](CC(C)C)C(=O)N[C@@H](CCSC)C(=O)NCC(=O)N3)[C@H](C)SC[C@H](NC2=O)C(=O)N[C@@H](CC(N)=O)C(=O)N1)[C@@H](C)CC)C(C)C)C(=O)N[C@@H](CCCCN)C(=O)O [nisin Z]
reaction in competitive ELISA (anti-nisin A antibodies): no reaction | Minimum Inhibitory Concentration, B. cereus [1]: 130 µg/L | Minimum Inhibitory Concentration, S. thermophilus [2]: 6 µg/L | Minimum Inhibitory Concentration, Micrococcus flavus [3]: 11 µg/L | antimicrobial activity (inhibition spectrum) [4]: comparably high antimicrobial activity | antimicrobial activity (inhibition spectrum) [5]: comparably high antimicrobial activity | antimicrobial activity (inhibition spectrum) [6]: comparably high antimicrobial activity | antimicrobial activity (inhibition spectrum) [7]: comparably high antimicrobial activity | antimicrobial activity (inhibition spectrum) [8]: comparably high antimicrobial activity | sensitivity for chymotrypsin (chymotrypsin): comparable | sensitivity for trypsin (trypsin): comparable | solubility compared with nisin A (solubility determination; alkaline pH): greater than that of nisin A | Solubility (solubility determination; pH 6.0): 2600 µg/mL (≈ 781 µM) | Solubility (solubility determination; pH 6.5): 1500 µg/mL (≈ 450 µM) | Solubility (solubility determination; pH 7.0): 800 µg/mL (≈ 240 µM) | Solubility (solubility determination; pH 7.5): 600 µg/mL (≈ 180 µM) | minimum inhibitory concentration (MIC) (M. flavus DSM1719): 0.015 µg/mL (≈ 0.0045 µM) | minimum inhibitory concentration (MIC) (S. thermophilus Rs [9]): 0.03 µg/mL (≈ 0.00901 µM) | zones of growth inhibition (S. thermophilus Rs [10]): Comparable results | diffusion rate in an agar medium ([11]; compared with nisin A): higher diffusion rate | zones of growth inhibition (diameter of halo) ([11]; concentrations above 0.03 μg/ml, versus same amount of nisin A): always found to be greater than those obtained with the same amount of nisin A
